# Patent publication US20150099800A1, “NOVEL LIPASE INHIBITORS, REPORTER SUBSTRATES AND USES THEREOF” (Northeastern University, priority 2012, published 2015)
# Like-named read-outs stand apart in the source and are kept apart here.
# Assays:
# rFAAH = biological target: T1, rFAAH (Rattus norvegicus, UniProt P97612); experiment: rFAAH coumarin substrate fluorescence assay; format: biochemical
# T1 construct: His (N); made in house; host or cells: E. coli (cell line provided by the Cravatt group)
# T1 sequence (P97612 30-579 limits assumed): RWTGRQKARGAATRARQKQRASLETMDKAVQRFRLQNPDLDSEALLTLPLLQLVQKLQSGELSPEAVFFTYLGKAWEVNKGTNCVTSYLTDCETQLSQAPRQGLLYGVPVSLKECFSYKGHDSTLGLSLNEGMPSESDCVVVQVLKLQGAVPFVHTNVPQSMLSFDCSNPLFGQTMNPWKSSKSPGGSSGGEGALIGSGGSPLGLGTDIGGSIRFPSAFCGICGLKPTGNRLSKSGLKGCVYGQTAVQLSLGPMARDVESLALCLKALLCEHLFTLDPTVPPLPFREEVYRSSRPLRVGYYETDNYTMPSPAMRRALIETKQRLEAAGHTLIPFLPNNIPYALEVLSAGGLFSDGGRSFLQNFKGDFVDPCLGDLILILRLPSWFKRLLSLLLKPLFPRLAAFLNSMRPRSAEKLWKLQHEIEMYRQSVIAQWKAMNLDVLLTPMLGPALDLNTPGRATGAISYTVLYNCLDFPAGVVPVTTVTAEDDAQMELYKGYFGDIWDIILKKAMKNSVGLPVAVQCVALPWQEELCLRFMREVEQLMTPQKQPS
# [1] = tested on: Lipoprotein Lipase (Bacterial); format: biochemical, Pseudomonas sp.
# [2] = biological target: T2, Pancreatic Lipase (Porcine) (Sus scrofa, UniProt P00591); format: biochemical
# T2 construct: purchased Sigma L3126
# T2 sequence (P00591 1-450): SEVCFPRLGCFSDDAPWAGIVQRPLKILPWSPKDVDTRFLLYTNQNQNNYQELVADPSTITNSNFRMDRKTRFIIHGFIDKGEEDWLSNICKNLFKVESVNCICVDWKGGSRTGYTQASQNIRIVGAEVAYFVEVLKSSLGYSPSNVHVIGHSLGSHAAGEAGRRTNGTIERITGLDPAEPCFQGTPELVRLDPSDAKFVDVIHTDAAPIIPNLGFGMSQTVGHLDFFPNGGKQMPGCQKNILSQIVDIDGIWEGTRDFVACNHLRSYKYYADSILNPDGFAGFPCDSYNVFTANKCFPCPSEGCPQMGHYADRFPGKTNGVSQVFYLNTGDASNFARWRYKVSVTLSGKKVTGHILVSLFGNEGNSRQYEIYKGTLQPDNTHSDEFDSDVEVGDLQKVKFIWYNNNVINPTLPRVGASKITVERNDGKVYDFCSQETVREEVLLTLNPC
# mDAGLα = biological target: T3, mDAGLα (Mus musculus, UniProt Q6WQJ1); experiment: Radio-TLC assay with [14C]SAG substrate, mDAGLα; conditions: for potency for mDAGLα relative to analogs of (S)-α-amino acids: 10 nM to 10 μM
# T3 sequence (Q6WQJ1 1-1044): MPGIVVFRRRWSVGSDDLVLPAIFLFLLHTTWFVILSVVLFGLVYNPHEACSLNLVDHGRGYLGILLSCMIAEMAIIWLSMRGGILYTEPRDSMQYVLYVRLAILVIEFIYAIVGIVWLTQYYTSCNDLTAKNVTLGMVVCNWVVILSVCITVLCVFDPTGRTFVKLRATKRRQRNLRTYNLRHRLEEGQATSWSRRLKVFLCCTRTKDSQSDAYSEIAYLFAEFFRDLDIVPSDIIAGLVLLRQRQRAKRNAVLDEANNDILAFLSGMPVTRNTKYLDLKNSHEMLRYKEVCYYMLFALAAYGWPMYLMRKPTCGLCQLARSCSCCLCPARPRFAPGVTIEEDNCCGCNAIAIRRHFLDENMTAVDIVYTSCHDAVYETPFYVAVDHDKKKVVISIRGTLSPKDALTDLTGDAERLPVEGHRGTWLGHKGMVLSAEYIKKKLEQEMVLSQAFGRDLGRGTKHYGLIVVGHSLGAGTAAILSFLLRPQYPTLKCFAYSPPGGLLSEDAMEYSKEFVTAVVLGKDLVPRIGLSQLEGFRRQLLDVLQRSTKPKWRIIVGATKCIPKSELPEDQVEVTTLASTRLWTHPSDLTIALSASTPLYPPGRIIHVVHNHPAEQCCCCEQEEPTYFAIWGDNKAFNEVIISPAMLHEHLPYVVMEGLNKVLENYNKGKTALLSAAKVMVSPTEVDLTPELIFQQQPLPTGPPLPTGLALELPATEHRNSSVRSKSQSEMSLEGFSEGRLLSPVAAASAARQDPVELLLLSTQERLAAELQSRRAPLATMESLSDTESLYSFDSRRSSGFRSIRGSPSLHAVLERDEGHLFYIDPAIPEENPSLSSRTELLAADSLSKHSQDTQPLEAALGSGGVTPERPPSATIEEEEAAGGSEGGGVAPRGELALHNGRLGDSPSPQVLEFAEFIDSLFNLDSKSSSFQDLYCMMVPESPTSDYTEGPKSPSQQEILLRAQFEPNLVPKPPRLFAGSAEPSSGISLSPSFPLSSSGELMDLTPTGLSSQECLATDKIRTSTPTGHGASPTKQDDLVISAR
# MAGL = biological target: T4, MAGL (Homo sapiens, UniProt Q99685); experiment: hMAGL coumarin substrate fluorescence assay; format: biochemical; design: The N-terminal his-tagged full length human monoacylglycerol lipase used; His (N); made in house; host or cells: E. coli
# T4 sequence (Q99685 1-303): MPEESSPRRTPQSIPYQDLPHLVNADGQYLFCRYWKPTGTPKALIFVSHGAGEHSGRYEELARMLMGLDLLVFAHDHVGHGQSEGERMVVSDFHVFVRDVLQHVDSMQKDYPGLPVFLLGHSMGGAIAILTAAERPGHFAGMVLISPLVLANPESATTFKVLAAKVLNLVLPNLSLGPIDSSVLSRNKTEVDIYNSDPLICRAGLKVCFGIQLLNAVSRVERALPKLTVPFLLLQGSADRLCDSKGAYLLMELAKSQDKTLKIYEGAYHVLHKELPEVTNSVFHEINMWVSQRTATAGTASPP
rFAAH inhibition at 10 μM (%) (rFAAH; 10 μM),Lipoprotein Lipase (Bacterial) inhibition at 10 μM (%) ([1]; 10 μM),Pancreatic Lipase (Porcine) inhibition at 10 μM (%) ([2]; 10 μM),mDAGLα inhibition at 10 nM (%) (mDAGLα),potency for mDAGLα relative to analogs of (S)-α-amino acids (mDAGLα),mDAGLα inhibition at 100 nM (%) (mDAGLα),mDAGLα inhibition at 1000 nM (%) (mDAGLα),mDAGLα inhibition at 10000 nM (%) (mDAGLα; 10000 nM),hMAGL inhibition at 10 μM (%) (MAGL; 10 μM),SMILES,also measured
,,,,,,,,,"CCCCCCCCCCC[C@@H](C[C@@H]1OC(=O)[C@H]1CCCCCC)OC(=O)[C@H](CC(C)C)NC=O [Compound 3, tetrahydrolipstatin]","inhibition at 10 µM (rFAAH; read-out: rFAAH inhibition at 10 μM (%)): 6%; inhibition of bacterial lipoprotein lipase, FRET ([1]; preliminary studies): potent inhibition; IC50 ([1]; reporter compound (17), read-out: apparent IC50 with lipoprotein lipase, FRET assay): ~100 nM; inhibition of porcine triacylglycerol lipase, FRET ([2]; preliminary studies): potent inhibition; inhibition at 10 µM ([2]; read-out: Pancreatic Lipase (Porcine) inhibition at 10 μM (%)): 96%; inhibition at 0.01 µM (mDAGLα; read-out: mDAGLα inhibition at 10 nM (%)): 55%; inhibition at 0.1 µM (mDAGLα; read-out: mDAGLα inhibition at 100 nM (%)): 72%; inhibition at 10 µM (MAGL; read-out: hMAGL inhibition at 10 μM (%)): 47%"
28%,86%,99%,33%,clearly less potent,29%,69%,85%,39%,CCCCCCCCCCCC(CC1OC(=O)C1CCCCCC)OC(=O)C(NC=O)C(C)CC (stereo not shown) [Compound 6],
0%,68%,95%,19%,clearly less potent,51%,75%,90%,42%,CCCCCCCCCCC[C@@H](C[C@@H]1OC(=O)[C@H]1CCCCCC)OC(=O)[C@H](NC=O)[C@@H](C)CC [Compound 7],
,,,,,,,,,O=C(Oc1ccc([N+](=O)[O-])cc1)N1CCC(C(O)(c2ccc3c(c2)OCO3)c2ccc3c(c2)OCO3)CC1 [JZL184],rFAAH inhibition at 10 μM (%) (rFAAH): 97^E %; Lipoprotein Lipase (Bacterial) inhibition at 10 μM (%) [1]: 36%; Pancreatic Lipase (Porcine) inhibition at 10 μM (%) [2]: 36%; mDAGLα inhibition at 10000 nM (%) (mDAGLα): 3%; hMAGL inhibition at 10 μM (%) (MAGL): 100^F %
